Results reported in US8999931B2, “Pharmaceutical composition using gonadotropin-releasing hormone (GNRH) combined variants as immunogen” (Centro de Ingenieria Genetica y Biotecnologia, priority 2008, dated 2015).
“And” between values parts separate entries of the source, which are not always exact repeats. Equal values may be shown once. Read-outs that look alike come from different tables or passages of the source.

Assays:
native GnRH peptide = assay type: in vivo, Copenhagen rats; settings: for anti-GnRH antibodies titers: 750 μg total peptide, fortnightly s.c.
testicles = test: Testicles weight evaluation at slaughter (100 days), treatment effect; assay type: in vivo, Copenhagen rats; settings: mean testicles weight vs placebo at slaughter (100 days); healthy adult rats, 750 μg total peptide
prostate = test: Prostate weight evaluation at slaughter (100 days), treatment effect; assay type: in vivo, Copenhagen rats; settings: mean prostate weight vs placebo at slaughter (100 days); healthy adult rats, 750 μg total peptide
testosterone = test: Testosterone levels determination / testosterone ablation after immunization; assay type: in vivo; settings: oily adjuvant (Montanide type); 2 immunizations in prepuberous animals, 3 or 4 immunizations in adult animals

Row | Sequence | seroconversion (anti-GnRH) (native GnRH peptide; after the first immunization, s.c., Montanide adjuvant) | Effect on Testicles (Etreatment=1−(Ptreatment/Pplacebo)) (testicles) | Effect on Prostate (Etreatment=1−(Ptreatment/Pplacebo)) (prostate) | seroconversion (anti-GnRH) (native GnRH peptide; after the fourth immunization, oily adjuvant (Montanide type)) | seroconversion (anti-GnRH) (native GnRH peptide; after the third immunization, s.c., Montanide adjuvant) | anti-GnRH response relative to TT-GnRHm1 variant (native GnRH peptide; doses equal to the TT-GnRHm1 variant) | highest anti-GnRH antibodies titers reached (native GnRH peptide; over the whole experiment (5 immunizations, 100 days)) | testosterone ablation (testosterone) | anti-GnRH antibodies titers (native GnRH peptide; after 75 days of the beginning of experiment) | anti-GnRH antibodies titers (native GnRH peptide; after 100 days / at the end of the experiment)
1 | IPGVAYTSPEVAWVGGGGQHWSYPLRP (GnRHm1 bonded at its amino-terminal end to the peptide P48 of the protein P64K of Neisseria meningitidis) [P48-P64K-GnRHm1] | 100% and 90% | 0.49 | 0.28 | – | – | – | – | – | – | –
2 | QHWSYPLRPGGGQYIKANSKFIGITEL (Chemical synthesis of the peptide.GnRHm1Tox.) [GnRHm1-TT] | – | 0.43 | 0.41 | 90% | 90% | 10 times weaker | 1/1000 | potent effect | – | –
3 | QYIKANSKFIGITELGGQ HWSYPLRPG (QYIKANSKFIGITELGGQHWSYPLRPG; GnRHm1 bonded at its amino-terminal end to epitope 830-844 of the tetanus toxoid) [TT-GnRHm1] | – | 0.55 | 0.42 | – | – | – | – | – | 1/6000 | 1/12000
